Experimental findings from patent US9125955B2, “99mTc imaging agents and methods of use” (GENERAL ELECTRIC COMPANY, priority 2012, dated 2015) are described below.

The data set can be described thus: Ligand stability studies (stock solution at room temperature, LC-MS). In kind it is physicochemical. The conditions noted are these: stock solution ~300 μg in 4 mL DMSO/H2O [1:1 v/v] (water for other ligands), bench top, LC-MS every 24 h, 3 days. As for the experimental part: Ligand stability studies: A stock solution (prepared by dissolving ˜300 μg of ligand in 4 mL of water; in the cases of Compound 2, 4 mL of DMSO/H2O[1:1 v/v] was used) was stored on bench top at room temperature without extra precautions.

Structures are written as SMILES.

On to `C/C(=N\O)C(C)(C)NCCN(CCNC(C)(C)/C(C)=N/O)S(=O)(=O)c1ccc(C)cc1` [Compound 2, N,N-bis(2-((E)-3-(hydroxyimino)-2-methylbutan-2-ylamino)ethyl)-4-methylbenzenesulfonamide], for which the “decomposition of ligand stock solution by LC-MS” value is “no decomposition was observed”.
